Results on 17 molecules are retold here after patent publication US11472805B2, “Tricyclic compounds and their use as phosphodiesterase inhibitors” (Pfizer Inc., priority 2015, dated 2022).

The structures appear in SMILES notation.

Assay type in all cases: biochemical
For one assay, the target named is Human PDE4C1 (Homo sapiens (Human), UniProt Q08493). The assay can be described thus: PDE4C1 Scintillation Proximity Assay (SPA), inhibition of enzyme activity. As to conditions: Table 9, geometric mean of 2-9 determinations unless otherwise indicated, read-out: Human PDE4C FL. The procedure: (§1) The PDE4A, PDE4B, PDE4C and PDE4D binding affinity for the compounds of the present invention was determined utilizing the following biological assay(s):
(§2) The recombinant Bacmid was isolated and used to transfect insect cells to generate a viral stock. To generate cell paste for purification, insect cells were infected with the virus stock and cells were harvested 72 hours after infection. Insect cell paste was lysed and after centrifugation, the supernatant was batch bound to Ni-NTA agarose (GE Healthcare) and eluted with 250 mM imidazole. This eluate was diluted with FLAG buffer (50 mM Tris HCL pH 7.5, 100 mM NaCl, 5% Glycerol, 1 mM TCEP with protease inhibitors) and batch bound to ant-FLAG M2 agarose (Sigma) overnight at 4° C. The agarose was packed into a column, washed with buffer and eluted with buffer containing elute using 250 ug/ml Flag-peptide. Fractions were analyzed using SDS-PAGE Coomassie blue staining and pooled based on purity. Pooled fractions were chromatographed on a S200 120 ml column (GE Healthcare) in 50 mM Tris HCL pH 7.5, 150 mM NaCl, 10% Glycerol, 2 mM TCEP with protease inhibitors. PDE4C1 fractions were analyzed by SDS-PAGE Coomassie blue staining, pooled based on purity, dialyzed against 50 mM Tris HCL pH 7.5, 100 mM NaCl, 20% Glycerol, 2 mM TCEP, frozen and stored at −80° C.
(§3) The PDE4A3, PDE4B1, PDE4C1 and PDE4D3 assays use the Scintillation Proximity Assay (SPA) technology to measure the inhibition of human recombinant PDE4A1, PDE4B3, PDE4C1, and PDE4D3 enzyme activity by compounds in vitro. The PDE4A1, PDE4B3, PDE4C1, and PDE4D3 assays are run in parallel using identical parameters, except for the concentration of enzyme ([…]). The assays are performed in a 384-well format with 50 uL assay buffer (50 mM TRIS pH7.5; 1.3 mM MgCl2; 0.01% Brij) containing enough PDE4A3, PDE4B1, PDE4C1, and PDE4D to convert ˜20% of substrate (1 μM cAMP consisting of 20 nM 3H-cAMP+[…] cold cAMP) and a range of inhibitors. Reactions are incubated for 30 min at 25° C. The addition of 20 uL of 8 mg/ml yitrium silicate SPA beads (Perkin Elmer) stops the reaction. The plates are sealed (TopSeal, Perkin Elmer) and the beads are allowed to settle for 8 hrs, after which they are read on the Trilux Microbeta overnight.
(In a scintillation proximity assay essentially only radioactivity close to the scintillant gives light.)

In the next assay the target is human PDE4D3 (Homo sapiens (Human), UniProt Q08499). The assay can be described thus: PDE4D3 Scintillation Proximity Assay (SPA), inhibition of enzyme activity. As to conditions: Table 9, geometric mean of 2-9 determinations unless otherwise indicated, read-out: Human PDE4D FL. Put shortly:
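His-tagged human PDE4D3 (aa 50–672), expressed in insect cells, hydrolysed 1 μM cAMP (3H tracer plus cold) for 30 min at 25° C in 50 mM Tris pH 7.5, 1.3 mM MgCl2 and 0.01% Brij. Enzyme level was set for ~20% conversion. Product was read by yttrium silicate SPA beads after 8 h settling.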

In another assay the target is Human PDE4B1 (Homo sapiens (Human), UniProt Q07343, S133E/S654A/S659A/S661A). The assay is described as follows: PDE4B1 Scintillation Proximity Assay (SPA), inhibition of enzyme activity. As to conditions: Table 9, geometric mean of 2-9 determinations unless otherwise indicated, read-out: Human PDE4B FL. Put shortly: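 His-tagged enzyme from baculovirus-infected insect cells, Ni-NTA purified. SPA with 1 μM cAMP (20 nM 3H-cAMP tracer) in 50 mM Tris pH 7.5, 1.3 mM MgCl2, 0.01% Brij, […] PDE4B enzyme for ~20% substrate conversion; 30 min at 25 °C, stopped with yttrium silicate beads, read after 8 h settling.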

Another assay concerns the target Human PDE4A3 (Homo sapiens (Human), UniProt P27815). The assay can be described thus: PDE4A3 Scintillation Proximity Assay (SPA), inhibition of enzyme activity. As to conditions: Table 9, geometric mean of 2-9 determinations unless otherwise indicated, read-out: Human PDE4A FL. The procedure:
as §1
as §2, with “PDE4A3” for “PDE4C1”
as §3

Human PDE4A3, sequence (P27815 other isoform, or with tags, fused parts or gaps): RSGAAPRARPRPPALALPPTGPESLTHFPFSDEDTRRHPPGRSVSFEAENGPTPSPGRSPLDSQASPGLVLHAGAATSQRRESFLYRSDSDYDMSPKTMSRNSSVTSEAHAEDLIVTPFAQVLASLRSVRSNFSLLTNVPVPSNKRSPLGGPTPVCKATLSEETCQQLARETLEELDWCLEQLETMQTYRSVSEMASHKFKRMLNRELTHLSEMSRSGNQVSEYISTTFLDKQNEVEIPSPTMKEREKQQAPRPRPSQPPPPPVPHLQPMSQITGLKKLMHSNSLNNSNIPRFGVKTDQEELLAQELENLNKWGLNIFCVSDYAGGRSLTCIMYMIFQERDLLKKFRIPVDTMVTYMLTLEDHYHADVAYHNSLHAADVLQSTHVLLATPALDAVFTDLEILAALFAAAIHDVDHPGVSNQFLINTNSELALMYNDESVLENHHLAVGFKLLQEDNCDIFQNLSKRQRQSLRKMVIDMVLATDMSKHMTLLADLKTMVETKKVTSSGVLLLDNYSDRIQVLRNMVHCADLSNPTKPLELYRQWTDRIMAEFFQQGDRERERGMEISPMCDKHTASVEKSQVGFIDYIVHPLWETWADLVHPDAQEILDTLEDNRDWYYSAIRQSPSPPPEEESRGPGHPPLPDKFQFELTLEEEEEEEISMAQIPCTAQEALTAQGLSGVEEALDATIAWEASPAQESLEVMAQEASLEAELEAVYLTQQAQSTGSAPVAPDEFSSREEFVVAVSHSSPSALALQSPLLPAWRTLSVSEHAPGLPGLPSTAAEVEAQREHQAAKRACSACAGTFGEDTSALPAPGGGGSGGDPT
human PDE4D3, sequence (Q08499 186-808): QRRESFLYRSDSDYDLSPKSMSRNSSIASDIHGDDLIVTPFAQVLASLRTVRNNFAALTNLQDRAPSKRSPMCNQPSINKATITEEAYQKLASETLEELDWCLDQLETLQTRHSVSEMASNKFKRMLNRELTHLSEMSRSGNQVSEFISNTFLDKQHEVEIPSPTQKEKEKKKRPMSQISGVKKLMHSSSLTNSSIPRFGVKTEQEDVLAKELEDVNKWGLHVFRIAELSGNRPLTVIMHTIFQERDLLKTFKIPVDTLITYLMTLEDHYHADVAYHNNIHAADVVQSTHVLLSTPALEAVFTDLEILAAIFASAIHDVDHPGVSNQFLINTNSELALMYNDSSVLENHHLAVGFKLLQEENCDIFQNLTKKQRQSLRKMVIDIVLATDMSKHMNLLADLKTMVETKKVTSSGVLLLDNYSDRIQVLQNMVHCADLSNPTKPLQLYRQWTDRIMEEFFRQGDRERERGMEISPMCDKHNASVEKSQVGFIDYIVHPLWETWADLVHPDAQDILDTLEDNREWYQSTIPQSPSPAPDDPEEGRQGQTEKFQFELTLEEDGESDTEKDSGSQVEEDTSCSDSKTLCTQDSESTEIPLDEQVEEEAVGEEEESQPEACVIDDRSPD
Human PDE4B1, sequence (Q07343 122-736 S133E/S654A/S659A/S661A): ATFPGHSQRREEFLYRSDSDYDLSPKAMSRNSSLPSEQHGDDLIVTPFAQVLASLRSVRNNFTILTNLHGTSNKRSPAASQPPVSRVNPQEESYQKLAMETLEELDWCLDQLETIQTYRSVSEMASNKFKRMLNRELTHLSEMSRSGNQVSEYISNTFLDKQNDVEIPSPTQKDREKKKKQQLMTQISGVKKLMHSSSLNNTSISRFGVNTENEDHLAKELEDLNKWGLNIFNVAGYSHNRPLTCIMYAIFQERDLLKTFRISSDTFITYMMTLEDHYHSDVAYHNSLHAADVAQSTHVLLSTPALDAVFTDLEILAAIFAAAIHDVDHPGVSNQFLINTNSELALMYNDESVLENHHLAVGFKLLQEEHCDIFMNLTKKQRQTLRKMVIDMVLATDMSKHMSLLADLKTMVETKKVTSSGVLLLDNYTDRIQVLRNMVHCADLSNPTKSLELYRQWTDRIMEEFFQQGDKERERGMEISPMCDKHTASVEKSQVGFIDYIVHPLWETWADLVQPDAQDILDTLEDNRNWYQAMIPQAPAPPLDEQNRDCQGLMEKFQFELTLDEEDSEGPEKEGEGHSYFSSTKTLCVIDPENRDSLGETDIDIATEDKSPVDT
Human PDE4C1, sequence (Q08493 2-712): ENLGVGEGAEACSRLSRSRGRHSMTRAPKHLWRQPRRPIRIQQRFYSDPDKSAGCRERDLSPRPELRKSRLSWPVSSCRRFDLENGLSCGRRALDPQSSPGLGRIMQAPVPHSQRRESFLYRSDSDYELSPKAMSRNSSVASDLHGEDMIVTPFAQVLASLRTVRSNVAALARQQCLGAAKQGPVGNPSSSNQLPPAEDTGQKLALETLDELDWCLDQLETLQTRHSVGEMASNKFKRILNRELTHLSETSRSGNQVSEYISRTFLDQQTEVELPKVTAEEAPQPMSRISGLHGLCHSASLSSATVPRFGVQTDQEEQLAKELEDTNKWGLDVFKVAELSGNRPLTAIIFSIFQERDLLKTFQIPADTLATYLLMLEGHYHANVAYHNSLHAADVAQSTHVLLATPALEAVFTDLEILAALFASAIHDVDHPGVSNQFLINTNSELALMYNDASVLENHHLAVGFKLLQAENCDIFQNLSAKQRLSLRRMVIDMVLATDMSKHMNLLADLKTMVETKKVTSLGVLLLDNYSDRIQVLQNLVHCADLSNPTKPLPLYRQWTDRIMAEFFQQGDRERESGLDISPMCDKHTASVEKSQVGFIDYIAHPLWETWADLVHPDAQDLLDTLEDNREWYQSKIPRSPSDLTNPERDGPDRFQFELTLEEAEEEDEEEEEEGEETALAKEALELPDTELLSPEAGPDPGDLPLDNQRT

For `Cc1ccc(-c2c3n(c4cccnc24)CCN(C2CC2)C3=O)cc1C` [Example 33, 8-Cyclopropyl-10-(3,4-dimethylphenyl)-7,8-dihydropyrido[2′,3′:4,5]pyrrolo[1,2-a]pyrazin-9(6H)-one], the IC50 on Human PDE4C1 turned out to be 11.2 nM; at human PDE4D3, 497 nM; on Human PDE4B1 it was 6.09 nM; at Human PDE4A3 it was 4.93 nM.

For `N#Cc1cc(-c2c3n(c4cccnc24)CCN(C2CC2)C3=O)ccc1Cl` [Example 34, 2-Chloro-5-(8-cyclopropyl-9-oxo-6,7,8,9-tetrahydropyrido[2′,3′:4,5]pyrrolo[1,2-a]pyrazin-10-yl)benzonitrile], the IC50 on Human PDE4C1 was 2.88 nM; on human PDE4D3 it was 23.3 nM; at Human PDE4B1, less than 0.64 nM; at Human PDE4A3 it was 0.98 nM.

As to `O=C1c2c(-c3ccc4c(c3)CCO4)c3ncccc3n2CCN1C1CC1` [Example 35, 8-Cyclopropyl-10-(2,3-dihydro-1-benzofuran-5-yl)-7,8-dihydropyrido[2′,3′:4,5]pyrrolo[1,2-a]pyrazin-9(6H)-one], the IC50 is 5.52 nM at Human PDE4C1, 141 nM on human PDE4D3, 4.15 nM at Human PDE4B1 and 2.08 nM at Human PDE4A3.

Regarding `O=C1c2c(-c3ccc(F)c(Cl)c3)c3ncccc3n2CCN1C1CC1` [Example 36, 10-(3-Chloro-4-fluorophenyl)-8-cyclopropyl-7,8-dihydropyrido[2′,3′:4,5]pyrrolo[1,2-a]pyrazin-9(6H)-one], the IC50 was 3.48 nM at Human PDE4C1, 28.1 nM at human PDE4D3, less than 1.1 nM at Human PDE4B1 and less than 0.67 nM at Human PDE4A3.

For `Cc1cc(-c2c3n(c4cccnc24)CCN(C2CC2)C3=O)ccc1F` [Example 37, 8-Cyclopropyl-10-(4-fluoro-3-methylphenyl)-7,8-dihydropyrido[2′,3′:4,5]pyrrolo[1,2-a]pyrazin-9(6H)-one], the IC50 at Human PDE4C1 amounted to 3.3 nM; at human PDE4D3 it was 98.7 nM; on Human PDE4B1 it was 3.76 nM; at Human PDE4A3 it was 2.52 nM.

For `O=C1c2c(-c3ccc(F)cc3F)c3ncccc3n2CCN1C1CC1` [Example 38, 8-Cyclopropyl-10-(2,4-difluorophenyl)-7,8-dihydropyrido[2′,3′:4,5]pyrrolo[1,2-a]pyrazin-9(6H)-one], the IC50 amounted to 21 nM on Human PDE4C1, 569 nM on human PDE4D3, 10.9 nM at Human PDE4B1 and 5.59 nM at Human PDE4A3.

`O=C1c2c(-c3cc(F)c(F)c(F)c3)c3ncccc3n2CCN1C1CC1` [Example 40, 8-Cyclopropyl-10-(3,4,5-trifluorophenyl)-7,8-dihydropyrido[2′,3′:4,5]pyrrolo[1,2-a]pyrazin-9(6H)-one]: the IC50 at Human PDE4C1 was 4.36 nM; on human PDE4D3, 17.2 nM; at Human PDE4B1, less than 0.67 nM; on Human PDE4A3, less than 0.41 nM.

`O=C1c2c(-c3cccc(F)c3)c3ncccc3n2CCN1C1CC1` [Example 41, 8-Cyclopropyl-10-(3-fluorophenyl)-7,8-dihydropyrido[2′,3′:4,5]pyrrolo[1,2-a]pyrazin-9(6H)-one]: the IC50 at Human PDE4C1 came out at 9.22 nM; on human PDE4D3, 130 nM; at Human PDE4B1, 2.38 nM; at Human PDE4A3, 1.26 nM.

`O=C1c2c(-c3ccccc3)c3ncccc3n2CCN1C1CC1` [Example 42, 8-Cyclopropyl-10-phenyl-7,8-dihydropyrido[2′,3′:4,5]pyrrolo[1,2-a]pyrazin-9(6H)-one]: the IC50 was determined as 54.1 nM on Human PDE4C1, 1050 nM at human PDE4D3, 23.3 nM at Human PDE4B1 and 12.2 nM on Human PDE4A3.

As for `COc1ccc(-c2c3n(c4cccnc24)CCN(C2CC2)C3=O)cc1` [Example 44, 8-Cyclopropyl-10-(4-methoxyphenyl)-7,8-dihydropyrido[2′,3′:4,5]pyrrolo[1,2-a]pyrazin-9(6H)-one], the IC50 at Human PDE4C1 came out at 86 nM; on human PDE4D3 it was 212 nM; on Human PDE4B1 it was 6.37 nM; at Human PDE4A3 it was 33 nM.

Regarding `COc1ccc(-c2c3n(c4cccnc24)CCN(C2CC2)C3=O)cc1F` [Example 45, 8-Cyclopropyl-10-(3-fluoro-4-methoxyphenyl)-7,8-dihydropyrido[2′,3′:4,5]pyrrolo[1,2-a]pyrazin-9(6H)-one], the IC50 amounted to 7.88 nM at Human PDE4C1, 281 nM on human PDE4D3, 5.81 nM at Human PDE4B1 and 1.59 nM at Human PDE4A3.

As to `O=C1c2c(-c3cc(F)ccc3F)c3ncccc3n2CCN1C1CC1` [Example 46, 8-Cyclopropyl-10-(2,5-difluorophenyl)-7,8-dihydropyrido[2′,3′:4,5]pyrrolo[1,2-a]pyrazin-9(6H)-one], the IC50 is 6.98 nM at Human PDE4C1, 203 nM on human PDE4D3, 4.04 nM on Human PDE4B1 and 2.29 nM at Human PDE4A3.

Regarding `O=C1c2c(-c3ccc(Cl)cc3F)c3ncccc3n2CCN1C1CC1` [Example 47, 10-(4-Chloro-2-fluorophenyl)-8-cyclopropyl-7,8-dihydropyrido[2′,3′:4,5]pyrrolo[1,2-a]pyrazin-9(6H)-one], the IC50 at Human PDE4C1 came out at 2.88 nM; on human PDE4D3, 142 nM; at Human PDE4B1, 1.14 nM; on Human PDE4A3, 2 nM.

On to `O=C1c2c(-c3cccc(Cl)c3)c3ncccc3n2CCN1C1CC1` [Example 48, 10-(3-Chlorophenyl)-8-cyclopropyl-7,8-dihydropyrido[2′,3′:4,5]pyrrolo[1,2-a]pyrazin-9(6H)-one], for which the IC50 at Human PDE4C1 was 3.16 nM; on human PDE4D3 it was 19.8 nM; on Human PDE4B1, less than 0.72 nM; on Human PDE4A3, 1 nM.

Turning to `Cc1cc(F)ccc1-c1c2n(c3cccnc13)CCN(C1CC1)C2=O` [Example 49, 8-Cyclopropyl-10-(4-fluoro-2-methylphenyl)-7,8-dihydropyrido[2′,3′:4,5]pyrrolo[1,2-a]pyrazin-9(6H)-one], the IC50 on Human PDE4C1 came to 9.39 nM; at human PDE4D3, 395 nM; at Human PDE4B1 it was 5.79 nM; on Human PDE4A3 it was 2.71 nM.

`Cc1cc(C#N)ccc1-c1c2n(c3cccnc13)CCN(C1CC1)C2=O` [Example 50, 4-(8-Cyclopropyl-9-oxo-6,7,8,9-tetrahydropyrido[2′,3′:4,5]pyrrolo[1,2-a]pyrazin-10-yl)-3-methylbenzonitrile]: the IC50 on Human PDE4C1 turned out to be 9.62 nM; on human PDE4D3 it was 356 nM; on Human PDE4B1 it was 6.9 nM; on Human PDE4A3 it was 2.99 nM.

Take `O=C1c2c(-c3cncc(Cl)c3)c3ncccc3n2CCN1C1CC1` [Example 51, 10-(5-Chloropyridin-3-yl)-8-cyclopropyl-7,8-dihydropyrido[2′,3′:4,5]pyrrolo[1,2-a]pyrazin-9(6H)-one]: the IC50 on Human PDE4C1 is 694 nM; on human PDE4D3 it was 2010 nM; on Human PDE4B1 it was 26.1 nM; at Human PDE4A3, 86.7 nM.
